# In patent US20250163119A1, “COMPOUNDS FOR THE TREATMENT OF DIABETES OR OBESITY” (Eli Lilly and Company, priority 2023, published 2025):
# *1 amine or outer side, *2 acyl side, *3 side chain or, on linkers, in order; H or OH if unused. Where a SMILES comes first, the peptide text is derived from it. Side-chain parts run from the residue outwards. [ ]: non-standard residue; d: D form. The star is where a group is joined. C20 diacid = O=C(O)CCCCCCCCCCCCCCCCCCC(=O)*; γGlu = O=C(O)[C@H](CCC(=O)[*:2])N[*:1]; NMeI = CC[C@H](C)[C@H](NC)C(=O)O; AEEA = NCCOCCOCC(=O)O
# Assay: Association state determination by Sedimentation Velocity Analytical UltraCentrifugation (SV-AUC)
# Format: physicochemical
# Method: SV-AUC was performed at 20° C. using a Beckman Optima with AN 60 Ti rotor and final rotor speed of 60,000 rpm. Peptides were dialyzed into 5 mM phosphate pH 7 or 1× phosphate buffered saline (PBS) pH 7.2. Samples were adjusted to the desired concentration (0.1 mg/mL, 1 mg/mL, or 10 mg/mL) using relevant buffer as needed. Both samples and buffer were passed through […] PVDF centrifugal filter units. The filtered samples were loaded into the sample sectors of the cells; filtered buffer alone was loaded in the reference sector of the cells. A Wavelength Scan was performed as the first step to choose a suitable lambda […] value for the given compound with 1-1.2 OD at the concentration(s) tested; this value was generally between 225 nm and 254 nm and used for Method Scan in the next step. In the Method Scan, both absorbance and interference detection modules were used. Temperature equilibration was set as first stage with 0 rpm rotor speed for 3 hours. Sedimentation velocity was set as second stage with rotor speed at 60,000 rpm. 300 scans with frequency of 60 seconds or 500 scan counts with frequency of 120 seconds were performed at the designated wavelength. Data were analyzed with SEDFIT software wherein a continuous c(s) distribution model was applied; the setting of relevant parameters is shown in Table 4 and Table 5; sedimentation coefficient (s) values were reported in Svedherg units (S).
# The experiment to characterize a compound comprising SEQ ID NO:54 was performed at 300 scan counts with frequency of 60 seconds; for all other tested polypeptides, the experiments were performed at 500 scan counts with frequency of 120 seconds.
# [1] = 0.1 mg/mL, 1x PBS, pH 7.2, 20° C.
structure (smiles),measurement,setting,value
CC[C@H](C)[C@H](NC)C(=O)N[C@H](C(=O)N[C@@H](CC(C)C)C(=O)N[C@@H](CO)C(=O)N[C@@H](CC(C)C)C(=O)N[C@@H](CC(=O)O)C(=O)N[C@H](C(=O)N1CCC[C@H]1C(=O)N[C@H](C(=O)NCC(=O)N[C@@H](CC(C)C)C(=O)N[C@@H](CC(C)C)C(=O)N[C@@H](CCC(N)=O)C(=O)N[C@H](C(=O)N[C@@H](CC(C)C)C(=O)N[C@@H](CC(C)C)C(=O)N[C@@H](CCC(=O)O)C(=O)N[C@@H](CCC(N)=O)C(=O)N[C@@H](CCC(=O)O)C(=O)N[C@@H](CCCCN)C(=O)N[C@@H](CCC(N)=O)C(=O)N[C@@H](CCC(=O)O)C(=O)N[C@@H](CCCCN)C(=O)N[C@@H](CCC(=O)O)C(=O)N[C@@H](CCCCN)C(=O)N[C@@H](CCC(N)=O)C(=O)N[C@@H](CCC(N)=O)C(=O)N[C@@H](C)C(=O)N[C@@H](CCCCNC(=O)COCCOCCNC(=O)COCCOCCNC(=O)CC[C@H](NC(=O)CC[C@H](NC(=O)CCCCCCCCCCCCCCCCCCC(=O)O)C(=O)O)C(=O)O)C(=O)N[C@H](C(=O)N[C@@H](CC(N)=O)C(=O)N[C@@H](C)C(=O)N[C@@H](CCC(N)=O)C(=O)N[C@H](C(=O)N[C@@H](CC(C)C)C(=O)N[C@@H](C)C(=O)N[C@@H](CCC(N)=O)C(=O)N[C@H](C(N)=O)C(C)C)[C@@H](C)CC)[C@@H](C)O)[C@@H](C)CC)[C@@H](C)CC)C(C)C)C(C)C [SEQ ID NO: 54] (H-[NMeI]VLSLDVPIGLLQILLEQEKQEKEKQQAK([AEEA-AEEA-γGlu-γGlu-C20 diacid])TNAQILAQV-NH2),"Mw (SEDFIT), apparent molecular weight",[1],38787 Da
same,Sedimentation Coefficient,[1],3.5 S
same,Sedimentation Coefficient species (% of total),[1],89%
same,self-association state from sedimentation coefficients,"0.1, 1 and 10 mg/mL for SEQ ID NO:54",higher order oligomers were the major species
